Legend:
Assay in all cases: kinase profiling, radioactive filter binding assay
Assay type in all cases: biochemical
MSK1 = MSK1 (Homo sapiens, UniProt O75582); conditions: 0.1 µM compound, assay duplicates; read-out: residual activity of MSK1, mean percentage activity
Experimental: (§1) The used method was a radioactive filter binding assay using ^33P ATP, for details see references. The substances were dissolved in DMSO at tested concentration of 0.1 µM. The mean percentage residual kinase activity and standard deviations of assay duplicates were determined. Analyses were performed by the International Center for Kinase Profiling at the University of Dundee, UK.

CSK = CSK (Homo sapiens, UniProt P41240); conditions: 0.1 µM compound, assay duplicates; read-out: residual activity of CSK, mean percentage activity
Experimental: as §1

PAK6 = PAK6 (Homo sapiens, UniProt Q9NQU5); conditions: 0.1 µM compound, assay duplicates; read-out: residual activity of PAK6, mean percentage activity
Experimental: as §1

RSK1 = RSK1 (Homo sapiens, UniProt Q15418); conditions: 0.1 µM compound, assay duplicates; read-out: residual activity of RSK1, mean percentage activity
Experimental: as §1

EFK2 = EFK2 (Homo sapiens, UniProt O00418); conditions: 0.1 µM compound, assay duplicates; read-out: residual activity of EFK2, mean percentage activity
Experimental: as §1

IKKb = IKKb (Homo sapiens, UniProt O14920); conditions: 0.1 µM compound, assay duplicates; read-out: residual activity of IKKb, mean percentage activity
Experimental: as §1

PRK2 = PRK2 (Homo sapiens, UniProt Q16513); conditions: 0.1 µM compound, assay duplicates; read-out: residual activity of PRK2, mean percentage activity
Experimental: as §1

RSK2 = RSK2 (Homo sapiens, UniProt P51812); conditions: 0.1 µM compound, assay duplicates; read-out: residual activity of RSK2, mean percentage activity
Experimental: as §1

YES1 = YES1 (Homo sapiens, UniProt P07947); conditions: 0.1 µM compound, assay duplicates; read-out: residual activity of YES1, mean percentage activity
Experimental: as §1

EPH A2 = EPH A2 (Homo sapiens, UniProt P29317); conditions: 0.1 µM compound, assay duplicates; read-out: residual activity of EPH A2, mean percentage activity
Experimental: as §1

PKD1 = PKD1 (Homo sapiens, UniProt Q15139); conditions: 0.1 µM compound, assay duplicates; read-out: residual activity of PKD1, mean percentage activity
Experimental: as §1

SYK = SYK (Homo sapiens, UniProt P43405); conditions: 0.1 µM compound, assay duplicates; read-out: residual activity of SYK, mean percentage activity
Experimental: as §1

CK1 = CK1 (Homo sapiens, UniProt P48730); conditions: 0.1 µM compound, assay duplicates; read-out: residual activity of CK1, mean percentage activity
Experimental: as §1

DYRK3 = DYRK3 (Homo sapiens, UniProt O43781); conditions: 0.1 µM compound, assay duplicates; read-out: residual activity of DYRK3, mean percentage activity
Experimental: as §1

MNK2 = MNK2 (Homo sapiens, UniProt Q9HBH9); conditions: 0.1 µM compound, assay duplicates; read-out: residual activity of MNK2, mean percentage activity
Experimental: as §1

ROCK 2 = ROCK 2 (Homo sapiens, UniProt O75116); conditions: 0.1 µM compound, assay duplicates; read-out: residual activity of ROCK 2, mean percentage activity
Experimental: as §1

MELK = MELK (Homo sapiens, UniProt Q14680); conditions: 0.1 µM compound, assay duplicates; read-out: residual activity of MELK, mean percentage activity
Experimental: as §1

CAMK1 = CAMK1 (Homo sapiens, UniProt Q14012); conditions: 0.1 µM compound, assay duplicates; read-out: residual activity of CAMK1, mean percentage activity
Experimental: as §1

MAPKAP-K2 = MAPKAP-K2 (Homo sapiens, UniProt P49137); conditions: 0.1 µM compound, assay duplicates; read-out: residual activity of MAPKAP-K2, mean percentage activity
Experimental: as §1

PHK = conditions: 0.1 µM compound, assay duplicates
Experimental: as §1

ERK1 = ERK1 (Homo sapiens, UniProt P27361); conditions: 0.1 µM compound, assay duplicates; read-out: residual activity of ERK1, mean percentage activity
Experimental: as §1

CHK1 = CHK1 (Homo sapiens, UniProt O14757); conditions: 0.1 µM compound, assay duplicates; read-out: residual activity of CHK1, mean percentage activity
Experimental: as §1

MNK1 = MNK1 (Homo sapiens, UniProt Q9BUB5); conditions: 0.1 µM compound, assay duplicates; read-out: residual activity of MNK1, mean percentage activity
Experimental: as §1

BTK = BTK (Homo sapiens, UniProt Q06187); conditions: 0.1 µM compound, assay duplicates; read-out: residual activity of BTK, mean percentage activity
Experimental: as §1

SGK1 = SGK1 (Homo sapiens, UniProt O00141); conditions: 0.1 µM compound, assay duplicates; read-out: residual activity of SGK1, mean percentage activity
Experimental: as §1

CK2 = CK2 (Homo sapiens, UniProt P68400); conditions: 0.1 µM compound, assay duplicates; read-out: residual activity of CK2, mean percentage activity
Experimental: as §1

DYRK2 = DYRK2 (Homo sapiens, UniProt Q92630); conditions: 0.1 µM compound, assay duplicates; read-out: residual activity of DYRK2, mean percentage activity
Experimental: as §1

PDK1 = PDK1 (Homo sapiens, UniProt O15530); conditions: 0.1 µM compound, assay duplicates; read-out: residual activity of PDK1, mean percentage activity
Experimental: as §1

SRPK1 = SRPK1 (Homo sapiens, UniProt Q96SB4); conditions: 0.1 µM compound, assay duplicates; read-out: residual activity of SRPK1, mean percentage activity
Experimental: as §1

MAPKAP-K2, sequence (P49137 whole entry): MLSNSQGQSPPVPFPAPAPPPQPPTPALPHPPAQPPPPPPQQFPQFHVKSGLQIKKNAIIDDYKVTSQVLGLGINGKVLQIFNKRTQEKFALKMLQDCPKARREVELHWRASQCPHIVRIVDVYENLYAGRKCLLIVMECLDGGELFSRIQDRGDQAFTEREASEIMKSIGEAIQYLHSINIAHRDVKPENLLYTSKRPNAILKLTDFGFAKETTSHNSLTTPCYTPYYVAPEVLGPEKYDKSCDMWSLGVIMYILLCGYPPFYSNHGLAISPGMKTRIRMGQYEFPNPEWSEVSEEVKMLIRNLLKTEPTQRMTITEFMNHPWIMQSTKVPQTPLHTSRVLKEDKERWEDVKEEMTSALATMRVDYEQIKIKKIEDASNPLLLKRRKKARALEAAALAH
CAMK1, sequence (Q14012 whole entry): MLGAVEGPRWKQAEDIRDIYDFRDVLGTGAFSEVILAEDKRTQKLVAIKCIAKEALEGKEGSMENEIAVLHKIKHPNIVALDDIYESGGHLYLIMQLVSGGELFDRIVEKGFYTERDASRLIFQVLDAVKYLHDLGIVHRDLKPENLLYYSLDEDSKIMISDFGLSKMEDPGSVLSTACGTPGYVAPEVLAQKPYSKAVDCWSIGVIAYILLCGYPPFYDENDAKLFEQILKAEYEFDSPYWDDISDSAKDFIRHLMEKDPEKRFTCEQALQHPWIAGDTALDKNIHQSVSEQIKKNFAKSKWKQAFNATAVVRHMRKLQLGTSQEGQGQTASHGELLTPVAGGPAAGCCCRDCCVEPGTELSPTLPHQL
MELK, sequence (Q14680 whole entry): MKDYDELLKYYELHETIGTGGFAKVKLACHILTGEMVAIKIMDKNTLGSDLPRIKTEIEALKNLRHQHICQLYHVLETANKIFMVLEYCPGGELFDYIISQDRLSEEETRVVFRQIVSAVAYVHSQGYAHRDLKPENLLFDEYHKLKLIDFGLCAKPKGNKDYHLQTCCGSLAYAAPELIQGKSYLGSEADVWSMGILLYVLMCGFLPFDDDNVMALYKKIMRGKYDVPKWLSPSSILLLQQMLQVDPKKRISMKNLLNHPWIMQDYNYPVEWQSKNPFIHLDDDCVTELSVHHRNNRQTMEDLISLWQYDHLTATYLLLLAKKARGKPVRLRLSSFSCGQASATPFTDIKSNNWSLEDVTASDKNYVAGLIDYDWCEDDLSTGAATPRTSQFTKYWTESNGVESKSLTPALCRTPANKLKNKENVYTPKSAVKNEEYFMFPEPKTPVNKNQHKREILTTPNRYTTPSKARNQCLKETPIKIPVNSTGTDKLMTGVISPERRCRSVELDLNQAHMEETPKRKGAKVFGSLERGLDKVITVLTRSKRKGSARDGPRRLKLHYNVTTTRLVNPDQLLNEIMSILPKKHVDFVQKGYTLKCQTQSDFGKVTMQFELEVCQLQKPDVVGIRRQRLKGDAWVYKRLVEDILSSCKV
IKKb, sequence (O14920 whole entry): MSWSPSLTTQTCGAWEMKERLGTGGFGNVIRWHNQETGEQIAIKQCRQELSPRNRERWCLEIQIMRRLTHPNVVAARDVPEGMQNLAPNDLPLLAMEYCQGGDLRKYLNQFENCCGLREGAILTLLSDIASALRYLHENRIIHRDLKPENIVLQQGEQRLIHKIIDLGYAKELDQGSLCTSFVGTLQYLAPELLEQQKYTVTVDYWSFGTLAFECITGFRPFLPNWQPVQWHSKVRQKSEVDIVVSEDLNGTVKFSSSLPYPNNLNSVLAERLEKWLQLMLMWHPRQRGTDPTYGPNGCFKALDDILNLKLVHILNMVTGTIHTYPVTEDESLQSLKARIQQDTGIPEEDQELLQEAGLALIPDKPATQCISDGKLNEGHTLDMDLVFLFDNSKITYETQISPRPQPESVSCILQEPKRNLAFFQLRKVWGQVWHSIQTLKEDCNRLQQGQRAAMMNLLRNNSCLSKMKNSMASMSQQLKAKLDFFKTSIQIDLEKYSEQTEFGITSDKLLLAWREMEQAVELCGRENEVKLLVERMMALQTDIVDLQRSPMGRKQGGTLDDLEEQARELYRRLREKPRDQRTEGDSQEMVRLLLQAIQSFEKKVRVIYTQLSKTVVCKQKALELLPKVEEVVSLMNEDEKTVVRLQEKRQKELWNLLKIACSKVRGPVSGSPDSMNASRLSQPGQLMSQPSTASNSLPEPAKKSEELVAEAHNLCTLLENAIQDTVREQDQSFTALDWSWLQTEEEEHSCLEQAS
CHK1, sequence (O14757 whole entry): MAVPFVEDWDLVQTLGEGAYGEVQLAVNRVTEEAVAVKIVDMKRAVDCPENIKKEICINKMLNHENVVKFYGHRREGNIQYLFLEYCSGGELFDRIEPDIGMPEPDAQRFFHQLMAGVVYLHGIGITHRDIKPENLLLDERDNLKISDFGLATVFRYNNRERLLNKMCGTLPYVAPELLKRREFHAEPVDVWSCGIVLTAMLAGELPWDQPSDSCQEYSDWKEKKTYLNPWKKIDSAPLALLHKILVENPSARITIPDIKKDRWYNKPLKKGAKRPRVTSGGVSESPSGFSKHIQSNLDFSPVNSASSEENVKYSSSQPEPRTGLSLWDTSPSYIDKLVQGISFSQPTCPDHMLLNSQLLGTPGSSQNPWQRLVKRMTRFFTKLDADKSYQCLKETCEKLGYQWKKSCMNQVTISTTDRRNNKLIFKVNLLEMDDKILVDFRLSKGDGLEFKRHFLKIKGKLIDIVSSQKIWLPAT
RSK2, sequence (P51812 whole entry): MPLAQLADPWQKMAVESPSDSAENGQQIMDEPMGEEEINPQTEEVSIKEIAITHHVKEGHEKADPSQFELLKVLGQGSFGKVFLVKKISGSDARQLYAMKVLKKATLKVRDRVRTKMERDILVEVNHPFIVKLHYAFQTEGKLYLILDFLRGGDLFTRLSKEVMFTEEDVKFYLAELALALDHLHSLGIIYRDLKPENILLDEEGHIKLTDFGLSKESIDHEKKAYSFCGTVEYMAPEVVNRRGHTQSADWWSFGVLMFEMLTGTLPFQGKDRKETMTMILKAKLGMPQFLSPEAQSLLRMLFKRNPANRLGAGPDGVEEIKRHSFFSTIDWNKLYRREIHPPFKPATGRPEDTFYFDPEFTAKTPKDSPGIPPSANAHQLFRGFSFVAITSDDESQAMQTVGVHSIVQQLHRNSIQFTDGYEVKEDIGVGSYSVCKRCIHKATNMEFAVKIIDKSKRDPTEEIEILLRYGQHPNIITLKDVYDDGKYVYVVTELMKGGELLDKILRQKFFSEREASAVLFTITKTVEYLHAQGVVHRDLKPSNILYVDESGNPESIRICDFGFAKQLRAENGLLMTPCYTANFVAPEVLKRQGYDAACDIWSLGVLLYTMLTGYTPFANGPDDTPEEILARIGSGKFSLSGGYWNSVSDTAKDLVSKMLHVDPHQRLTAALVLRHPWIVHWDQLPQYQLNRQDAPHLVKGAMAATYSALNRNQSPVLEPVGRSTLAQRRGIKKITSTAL
CK2, sequence (P68400 whole entry): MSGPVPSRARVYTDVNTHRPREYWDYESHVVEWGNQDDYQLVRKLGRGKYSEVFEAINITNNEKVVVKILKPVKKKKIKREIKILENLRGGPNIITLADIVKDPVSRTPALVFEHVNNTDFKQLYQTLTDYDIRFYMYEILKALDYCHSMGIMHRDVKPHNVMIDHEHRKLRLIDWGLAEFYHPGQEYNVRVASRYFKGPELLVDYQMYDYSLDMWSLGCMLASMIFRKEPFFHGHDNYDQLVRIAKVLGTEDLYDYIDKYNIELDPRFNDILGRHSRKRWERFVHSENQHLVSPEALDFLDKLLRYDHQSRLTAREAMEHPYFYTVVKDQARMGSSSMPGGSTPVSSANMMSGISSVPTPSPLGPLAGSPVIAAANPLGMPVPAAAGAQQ
MSK1, sequence (O75582 whole entry): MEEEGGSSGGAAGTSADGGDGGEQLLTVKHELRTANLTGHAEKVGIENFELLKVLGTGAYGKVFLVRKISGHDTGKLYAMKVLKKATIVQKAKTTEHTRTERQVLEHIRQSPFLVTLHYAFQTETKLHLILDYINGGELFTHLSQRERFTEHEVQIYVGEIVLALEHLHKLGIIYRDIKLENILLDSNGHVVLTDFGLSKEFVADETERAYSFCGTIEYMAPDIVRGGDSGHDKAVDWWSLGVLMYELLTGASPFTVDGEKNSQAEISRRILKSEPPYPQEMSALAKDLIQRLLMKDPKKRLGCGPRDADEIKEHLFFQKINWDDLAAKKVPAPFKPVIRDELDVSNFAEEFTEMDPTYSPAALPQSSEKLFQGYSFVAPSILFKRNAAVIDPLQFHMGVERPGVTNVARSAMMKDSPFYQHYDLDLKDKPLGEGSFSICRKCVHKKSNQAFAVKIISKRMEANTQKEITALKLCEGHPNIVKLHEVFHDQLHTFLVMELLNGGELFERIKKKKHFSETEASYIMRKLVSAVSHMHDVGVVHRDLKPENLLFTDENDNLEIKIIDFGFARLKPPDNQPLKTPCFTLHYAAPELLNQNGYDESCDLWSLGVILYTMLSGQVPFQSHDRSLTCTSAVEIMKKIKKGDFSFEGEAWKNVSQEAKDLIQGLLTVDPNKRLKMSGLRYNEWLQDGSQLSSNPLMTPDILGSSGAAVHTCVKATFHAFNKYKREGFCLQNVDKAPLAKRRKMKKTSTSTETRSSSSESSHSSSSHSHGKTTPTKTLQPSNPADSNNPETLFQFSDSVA
CK1, sequence (P48730 whole entry): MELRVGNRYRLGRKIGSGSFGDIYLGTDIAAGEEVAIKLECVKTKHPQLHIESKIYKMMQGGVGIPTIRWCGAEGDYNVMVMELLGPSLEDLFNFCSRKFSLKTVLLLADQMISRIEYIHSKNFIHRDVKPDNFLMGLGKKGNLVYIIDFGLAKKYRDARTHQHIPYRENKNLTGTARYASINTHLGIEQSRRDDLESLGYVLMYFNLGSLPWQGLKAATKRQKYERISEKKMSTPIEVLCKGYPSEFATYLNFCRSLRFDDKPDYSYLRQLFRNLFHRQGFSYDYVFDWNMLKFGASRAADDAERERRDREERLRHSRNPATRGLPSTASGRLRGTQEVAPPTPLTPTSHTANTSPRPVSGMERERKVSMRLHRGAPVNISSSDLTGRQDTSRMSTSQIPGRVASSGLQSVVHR

COc1cc(C2=C(c3c[nH]c4ccccc34)C(=O)NC2=O)cc(OC)c1OC [Compound 1, 3-(1H-Indol-3-yl)-4-(3,4,5-trimethoxyphenyl)-1H-pyrrole-2,5-dione]
remaining activity at 0.1 µM (MSK1): 69% | remaining activity at 0.1 µM (CSK): 138% | remaining activity at 0.1 µM (PAK6): 97% | remaining activity at 0.1 µM (RSK1): 96% | remaining activity at 0.1 µM (EFK2): 104% | remaining activity at 0.1 µM (IKKb): 102% | remaining activity at 0.1 µM (PRK2): 84% | remaining activity at 0.1 µM (RSK2): 91% | remaining activity at 0.1 µM (YES1): 84% | remaining activity at 0.1 µM (EPH A2): 104% | remaining activity at 0.1 µM (PKD1): 100% | remaining activity at 0.1 µM (SYK): 85% | remaining activity at 0.1 µM (CK1): 86% | remaining activity at 0.1 µM (DYRK3): 85% | remaining activity at 0.1 µM (MNK2): 90% | remaining activity at 0.1 µM (ROCK 2): 97% | remaining activity at 0.1 µM (MELK): 74% | remaining activity at 0.1 µM (CAMK1): 107% | remaining activity at 0.1 µM (MAPKAP-K2): 94% | residual activity of PHK, mean percentage activity (PHK): 73% | remaining activity at 0.1 µM (ERK1): 100% | remaining activity at 0.1 µM (CHK1): 72% | remaining activity at 0.1 µM (MNK1): 80% | remaining activity at 0.1 µM (BTK): 93% | remaining activity at 0.1 µM (SGK1): 75% | remaining activity at 0.1 µM (CK2): 94% | remaining activity at 0.1 µM (DYRK2): 57% | remaining activity at 0.1 µM (PDK1): 68% | remaining activity at 0.1 µM (SRPK1): 85%

COc1cc2c3c(c4c5ccccc5[nH]c4c2c(OC)c1OC)C(=O)NC3=O [Compound 3, 5,6,7-Trimethoxybenzo[a]pyrrolo[3,4-c]carbazole-1,3(2H,8H)-dione]
remaining activity at 0.1 µM (MSK1): 55% | remaining activity at 0.1 µM (CSK): 99% | remaining activity at 0.1 µM (PAK6): 99% | remaining activity at 0.1 µM (RSK1): 51% | remaining activity at 0.1 µM (EFK2): 109% | remaining activity at 0.1 µM (IKKb): 113% | remaining activity at 0.1 µM (PRK2): 52% | remaining activity at 0.1 µM (RSK2): 62% | remaining activity at 0.1 µM (YES1): 88% | remaining activity at 0.1 µM (EPH A2): 109% | remaining activity at 0.1 µM (PKD1): 60% | remaining activity at 0.1 µM (SYK): 86% | remaining activity at 0.1 µM (CK1): 78% | remaining activity at 0.1 µM (DYRK3): 46% | remaining activity at 0.1 µM (MNK2): 81% | remaining activity at 0.1 µM (ROCK 2): 88% | remaining activity at 0.1 µM (MELK): 55% | remaining activity at 0.1 µM (CAMK1): 94% | remaining activity at 0.1 µM (MAPKAP-K2): 95% | residual activity of PHK, mean percentage activity (PHK): 41% | remaining activity at 0.1 µM (ERK1): 91% | remaining activity at 0.1 µM (CHK1): 34% | remaining activity at 0.1 µM (MNK1): 79% | remaining activity at 0.1 µM (BTK): 90% | remaining activity at 0.1 µM (SGK1): 52% | remaining activity at 0.1 µM (CK2): 91% | remaining activity at 0.1 µM (DYRK2): 17% | remaining activity at 0.1 µM (PDK1): 39% | remaining activity at 0.1 µM (SRPK1): 83%

From paper PMC6274539, “Photoactivatable Caged Prodrugs of VEGFR-2 Kinase Inhibitors” (Molecules, 2016)
